Values of other authors as cited in US20260294906A1, “TREATING PSORIASIS USING A SMALL MOLECULE INHIBITOR OF TUMOR NECROSIS FACTOR ALPHA” (SANOFI, priority 2023, published 2026).

Tests used:
[1] = test system: TNFR1; settings: Jurkat cells; sTNFα pre-incubated with the substance, compared with sTNFα alone; cited from earlier work
[2] = test system: sTNFα; settings: O'Connell et al.; cited from earlier work

Compound	TNFR1 signaling (RIP-1 ubiquitination and NF-κB phosphorylation) [1]	stabilization of the asymmetric sTNFα trimer [2]
etanercept	impaired	
Cc1ccc(C)c(Cn2c(C(O)c3ccncc3)nc3ccc(-c4cnn(C)c4)cc32)c1 (stereo not drawn) [UCB-9260, reference compound]	impaired	stabilizes the asymmetric sTNFα trimer
